Measurements: patent US20170253581A1, “SUBSTITUTED HETEROCYCLES AS c-MYC TARGETING AGENTS” (Northwestern University, priority 2016, published 2017)

Target: Myc/Max binding to DNA (Homo sapiens, UniProt P01106)
Test: Electrophoretic mobility shift assay (EMSA) of Myc/Max binding to DNA
Assay type: biochemical
Details: for remaining activity at 100 µM / remaining activity at 50 µM / remaining activity at 200 µM: EMSA; for remaining activity at 100 µM: 100 uM test compound, read-out: Bound DNA (%) (100uM); for remaining activity at 50 µM: 50 uM test compound, read-out: Bound DNA (%) (50uM); for remaining activity at 200 µM: 200 uM test compound, read-out: Bound DNA (%) (200uM)
Procedure: We also tested our best hit compound Min9 (NUCC-0176234) and newly synthesized analogs for effects of these compounds on Myc/Max binding to DNA in electrophoretic mobility shift assays (EMSAs). (See FIG. 5a and FIG. 5b). We expected the active compounds to impair Myc/Max binding to DNA. Several strucutural analogs of Min9 were tested over multiple doses for inhibiting Myc-DNA binding and we observed a dose-dependent inhibition. (See FIG. 5c).
Additional compounds were synthesized and tested in the EMSA assay at concentrations of 200 μM, 100 μM, and 50 μM.

Chain of Myc/Max binding to DNA (P01106 whole entry): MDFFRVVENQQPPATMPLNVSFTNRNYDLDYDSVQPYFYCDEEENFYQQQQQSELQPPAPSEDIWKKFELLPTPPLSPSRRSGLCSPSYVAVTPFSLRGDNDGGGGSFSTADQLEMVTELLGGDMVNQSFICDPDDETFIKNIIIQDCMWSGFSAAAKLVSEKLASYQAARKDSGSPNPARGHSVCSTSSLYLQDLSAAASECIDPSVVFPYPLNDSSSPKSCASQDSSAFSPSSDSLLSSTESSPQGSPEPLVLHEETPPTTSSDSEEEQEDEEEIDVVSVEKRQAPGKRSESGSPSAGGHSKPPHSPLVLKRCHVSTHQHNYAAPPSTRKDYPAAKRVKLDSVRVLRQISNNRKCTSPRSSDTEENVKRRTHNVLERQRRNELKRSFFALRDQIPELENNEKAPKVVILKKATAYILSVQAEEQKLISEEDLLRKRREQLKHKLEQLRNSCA

Row | remaining activity at 100 µM [%] | SMILES | other results
1 | 65 | CCc1ccc(Oc2c(-c3ccc(OCc4ccc(Cl)cc4)cc3OC)nn(C)c2C(F)(F)F)cc1 [compound 0196352] | 
2 | 103 | Cn1cc(C(F)(F)F)c(-c2ccc(OCc3ccc(Cl)cc3)cn2)n1 [compound 0200741] | 
3 | 110 | Cc1ccc(C)c(Oc2cn(C)nc2-c2ccc(OCc3ccc4ccccc4c3)cc2O)c1 [compound 0196291] | 
4 | 112 | Oc1cc(Nc2ccccn2)ccc1-c1cc(C(F)(F)F)[nH]n1 [compound 0200565] | remaining activity at 50 µM: 112%
5 | 67 | CN/N=C(\C)c1cccc(-c2c(C(F)(F)F)nn(C)c2-c2ccc(OCc3ccc(Cl)cc3)cc2O)c1 [compound 0198404] | 
6 | 3 | Oc1ccc(OCc2ccc(Cl)cc2)cc1-c1[nH]nc(C(F)(F)F)c1-c1ccccc1Cl [compound 0200576] | 
7 | 79 | Oc1cc(OCc2ccc(Cl)cc2)ccc1-c1cc(C(F)(F)F)nc(-c2cc(C(F)(F)F)cc(C(F)(F)F)c2)n1 [compound 0200501] | remaining activity at 50 µM: 91%
8 | 135 | Cn1cc(-c2ccc(F)cc2)c(-c2ccc(OCc3ccc(Cl)cc3)cc2O)n1 [compound 0196349] | 
9 | 59 | Oc1cc(Nc2ccc3c(c2)OCO3)ccc1-c1cc(C(F)(F)F)[nH]n1 [compound 0200561] | remaining activity at 50 µM: 91%
10 | 36 | Cn1nc(C(F)(F)F)c(-c2cc(C(F)(F)F)cc(C(F)(F)F)c2)c1-c1ccc(O)cc1O [compound 0200723] | remaining activity at 50 µM: 88%
11 | 92 | Cc1ccc(C)c(Oc2c[nH]nc2-c2ccc(OCc3ccc4ccccc4c3)cc2O)c1 [compound 0196290] | 
12 | 104 | Cc1cc(C)cc(-c2cn(C)nc2-c2ccc(OCc3ccc(Cl)cc3)cc2O)c1 [compound 0198353] | 
13 | 138 | Cc1ccc(C)c(Oc2cn(C)nc2-c2ccc(OCCN3CCCCC3)cc2O)c1 [compound 0196299] | 
14 | 76 | Oc1cc(OCc2ccc(Cl)cc2)ccc1-c1n[nH]c(C(F)(F)F)c1-c1ccc(C(F)(F)F)cc1Cl [compound 0200737] | 
15 | 33 | Oc1cc(OCc2ccc(Cl)cc2)ccc1-c1n[nH]c(C(F)(F)F)c1-c1cc(C(F)(F)F)cc(C(F)(F)F)c1 [compound 0196362] | 
16 | 101 | CCc1nn(C)c(-c2ccc(OCc3ccc(Cl)cc3)cc2O)c1-c1cccc(OC)c1 [compound 0198316] | 
17 | 35 | COc1ccc(-c2c(-c3ccc(OCc4ccc(Cl)cc4)cc3O)nn(C)c2C(F)(F)F)cc1 [compound 0196340] | 
18 | 70 | Cn1ncc(-c2ccoc2)c1-c1ccc(OCc2ccc(Cl)cc2)cc1O [compound 0198323] | 
19 | 46 | Oc1cc(OCc2ccc(Cl)cc2)ccc1-c1n[nH]c(C(F)(F)F)c1-c1ccc(Cl)c(C(F)(F)F)c1 [compound 0200732] | remaining activity at 50 µM: 89%
20 | 44 | C/C(=N\N)c1cccc(-c2c(-c3ccc(OCc4ccc(Cl)cc4)cc3O)n[nH]c2C(F)(F)F)c1 [compound 0198403] | 
21 | 86 | COc1cccc(-c2c(C(F)(F)F)nn(C)c2-c2ccc(OCc3ccc(Cl)cc3)cc2O)c1 [compound 0198310] | 

Row | remaining activity at 100 µM [%] | SMILES | other results
22 | 85 | Cc1cc(C)cc(-c2cnn(C)c2-c2ccc(OCc3ccc(Cl)cc3)cc2O)c1 [compound 0198354] | 
23 | 75 | CCCc1c(C(F)(F)F)n[nH]c1-c1ccc(OCc2ccc(Cl)cc2)cc1O [compound 0200740] | remaining activity at 50 µM: 93%
24 | 43 | Oc1cc(OCc2ccc(Cl)cc2)ccc1-c1n[nH]c(C(F)(F)F)c1Oc1cccc(F)c1 [compound 0196301] | 
25 | 105 | COc1cccc(-c2c(-c3ccc(OCc4ccc(Cl)cc4)cc3O)nn(C)c2C(F)(F)F)c1 [compound 0198311] | 
26 | 18 | Cn1nc(C(F)(F)F)c(-c2ccc(C(F)(F)F)cc2Cl)c1-c1ccc(OCc2ccc(Cl)cc2)cc1O [compound 0200738] | remaining activity at 50 µM: 91%
27 | 71 | COc1ccc(-c2c(-c3ccc(OCc4ccc(Cl)cc4)cc3O)noc2C(F)(F)F)cc1OC [compound 0196306] | 
28 | 30 | NC(=O)c1ccc(-c2c(-c3ccc(OCc4ccc(Cl)cc4)cc3O)n[nH]c2C(F)(F)F)cc1 [compound 0198394] | 
29 |  | Cc1[nH]nc(-c2ccc(OCc3ccc(Cl)cc3)cc2O)c1Oc1ccccc1 [NUCC-0176253] | remaining activity at 200 µM: 39%
30 | 57 | CCc1ccc(Oc2c(-c3ccc(OCc4ccc(OC)cc4)cc3O)n[nH]c2C(F)(F)F)cc1 [compound 0196359] | 
31 | 98 | CCc1ccc(Oc2c(-c3ccc(OCc4ccc(OC)cc4)cc3O)nn(C)c2C(F)(F)F)cc1 [compound 0196358] | 
32 | 57 | Cn1nc(C(F)(F)F)c(-c2cccc(C(N)=O)c2)c1-c1ccc(OCc2ccc(Cl)cc2)cc1O [compound 0198402] | 
33 |  | CCc1ccc(Oc2c[nH]nc2-c2ccc(OCCc3ccc(Cl)cc3)cc2O)cc1 [NUCC-0176261] | remaining activity at 200 µM: 25%
34 | 111 | COc1ccc(-c2c(-c3ccc(OCc4ccc(Cl)cc4)cc3O)nn(C)c2C)cc1 [compound 0198307] | 
35 | 54 | Cn1nc(C(F)(F)F)c(-c2ccc(C#N)cc2)c1-c1ccc(OCc2ccc(Cl)cc2)cc1O [compound 0198392] | 
36 | 2 | Cn1nc(C(F)(F)F)c(-c2cccc(C#N)c2)c1-c1ccc(OCc2ccc(Cl)cc2)cc1O [compound 0198399] | 
37 | 3 | Cn1cc(Oc2ccccc2Cl)c(-c2ccc(OCc3ccc(Cl)cc3)cc2O)n1 [compound 0196305] | IC50: 39 µM
38 | 4 | Oc1cc(Nc2ccc(Cl)c(Cl)c2)ccc1-c1cc(C(F)(F)F)[nH]n1 [compound 0200721] | remaining activity at 50 µM: 87%
39 | 77 | Oc1cc(OCc2ccc(Cl)cc2)ccc1-c1n[nH]c(C(F)(F)F)c1-c1cccc(C(F)(F)F)c1 [compound 0200730] | remaining activity at 50 µM: 93%
40 |  | Cc1[nH]nc(-c2ccc(OCc3ccncc3)cc2O)c1Oc1ccccc1 [NUCC-0176252] | remaining activity at 200 µM: 87%
41 | 87 | CCc1ccc(Oc2c(-c3ccc(OCc4ccc(Cl)cc4)cc3O)n[nH]c2CC)cc1 [compound 0196282] | 
42 | 28 | CCc1ccc(Oc2c(-c3ccc(OCCc4ccc(Cl)cc4)cc3O)n[nH]c2C(F)(F)F)cc1 [compound 0196357] | 

Row | remaining activity at 100 µM [%] | SMILES | other results
43 | 114 | Cc1ccc(-c2cn(C)nc2-c2ccc(OCc3ccc(Cl)cc3)cc2O)cc1 [compound 0196346] | 
44 |  | Oc1cc(OCc2ccncc2)ccc1-c1n[nH]cc1Oc1ccccc1 [NUCC-0176251] | remaining activity at 200 µM: 62%
45 | 40 | CCc1ccc(Oc2c(-c3ccc(Nc4ccc(Cl)cc4)cc3O)n[nH]c2C(F)(F)F)cc1 [compound 0200680] | remaining activity at 50 µM: 96%
46 | 13 | Oc1ccc(OCc2ccc(Cl)cc2)cc1-c1[nH]nc(C(F)(F)F)c1-c1ccc(F)cc1 [compound 0200575] | 
47 | 118 | Cc1ccc(C)c(Oc2cn(C)nc2-c2ccc(OCc3ccc(Cl)cc3)cc2O)c1 [compound 0196285] | 
48 | 0 | CCc1ccc(Oc2c(-c3ccc(O)cc3O)n[nH]c2C(F)(F)F)cc1 [compound 0198406] | 
49 | 101 | CCc1ccc(Oc2c(-c3ccccc3O)nn(C)c2C(F)(F)F)cc1 [compound 0200684] | remaining activity at 50 µM: 102%
50 | 83 | Oc1cccc(OCc2ccc(Cl)cc2)c1-c1cc(C(F)(F)F)n[nH]1 [compound 0200570] | remaining activity at 50 µM: 85%
51 | 72 | Oc1cc(OCc2ccc(Cl)cc2)ccc1-c1n[nH]cc1Oc1ccc(Cl)cc1 [compound 0196303] | 
52 | 8 | CCc1ccc(Oc2c(-c3ccc(Oc4ccc(Cl)cc4)cc3O)n[nH]c2C(F)(F)F)cc1 [compound 0200681] | remaining activity at 50 µM: 90%
53 | 89 | Cn1nc(C(F)(F)F)cc1-c1cnc(OCc2ccc(Cl)cc2)cn1 [compound 0200692] | remaining activity at 50 µM: 97%
54 | 89 | Cn1nc(-c2ccc(NCc3ccc(Cl)cc3)cc2O)cc1C(F)(F)F [compound 0200494] | remaining activity at 50 µM: 99%
55 | 80 | Cn1cc(-c2ccoc2)c(-c2ccc(OCc3ccc(Cl)cc3)cc2O)n1 [compound 0198324] | 
56 | 118 | Cc1ccccc1-c1cn(C)nc1-c1ccc(OCc2ccc(Cl)cc2)cc1O [compound 0198356] | 
57 | 100 | CCc1nn(C)c(-c2ccc(OCc3ccc(Cl)cc3)cc2O)c1-c1ccccc1 [compound 0198302] | 
58 |  | CCc1ccc(Oc2c[nH]nc2-c2ccc(OCCc3ccc(F)cc3)cc2O)cc1 [NUCC-0176258] | remaining activity at 200 µM: 17%
59 | 102 | Oc1ccc(OCc2ccc(Cl)cc2)cc1-c1cc(C(F)(F)F)n[nH]1 [compound 0200573] | 
60 | 98 | Cn1nc(C(F)(F)F)cc1-c1cnc(O)cn1 [compound 0200689] | remaining activity at 50 µM: 98%
61 | 101 | Cn1nc(C(F)(F)F)cc1-c1ccc(O)cn1 [compound 0200687] | remaining activity at 50 µM: 100%
62 | 45 | CCc1ccc(Oc2c(-c3ccc(OCc4cccc(OC)c4)cc3O)n[nH]c2C(F)(F)F)cc1 [compound 0196297] | 
63 |  | CCc1ccc(Oc2c[nH]nc2-c2ccc(OCc3cnn(C)c3)cc2O)cc1 [NUCC-0176246] | remaining activity at 200 µM: 87%
